# Data as given in US20210330736A1 (UNIVERSITEIT VAN AMSTERDAM, priority 2018, published 2021).
# Legend:
# [1] = system: Ser40 phosphorylation of Th in MN9D cells; experiment: Th Ser40 phosphorylation in MN9D cells (western blot, P-Ser40/total Th); format: cell-based
# Method: FIG. 6. PDE2a is an important effector regulating Ser40 phosphorylation in MN9D cells. MN9D cultures were treated with IBMX or BAY-60-7550 (50 μM), a PDE2A-selective inhibitor. Cells were analyzed on western-blot for phosphorylation of Ser40 , total Th, and actin.
# (§1) FIG. 7. PDE2a is an important effector regulating Ser40 phosphorylation in MN9D cells. BAY-60-7550 dose-curve and representative examples in MN9D (n=9, red) and HEK cells (n=4, blue) (Mean±SEM). Cells were treated with various concentrations of BAY 60-7750 and analyzed for Th phosphorylation on Ser40 , total Th and actin.
# FIG. 10. PDE11 is an important effector regulating Ser40 phosphorylation in MN9D cells. BC 11-38 dose-curve and representative examples in MN9D (n=2) (Mean±SEM). IBMX served as a control and was used at 100 μM. Cell were analyzed for phosphorylation of Th on Ser40 and total Th was used as a loading control to determine phosphorylation specific effects.
# 24 hours prior to the administration of the different compounds, cells were serum-starved with DMEM medium supplemented with L-glutamine and Pen&Strep. Unless otherwise stated, the concentration of the different reagents is reported in Table 1 and the duration of the treatment was 1 hour.
# Cells were harvested in 150 μL of Laemmli sample buffer (2% SDS, 10% glycerol, 60 mM Tris-Cl pH 6.8, 0.01% bromophenol blue, 50 mM freshly added DTT). Wells were duplicated in pairs and pooled into the same tubes to minimize variability. Samples were sonicated at maximum potency during 3 minutes, heated at 95° C. for 5 minutes and spun down briefly before loading. Running gels were 10% polyacrylamide except for the GUCY2C detection, which was optimal in 7% gels (375 mM Tris-Cl pH 8.8, 0.1% APS, 0.1% SDS, 0.04% TEMED). Stacking gels were 5% polyacrylamide (125 mM Tris-Cl pH 6.8, 0.1% APS, 0.1% SDS, 0.04% TEMED).
# Up to 35 μL of sample was loaded in each slot and run in the presence of tris-glycine buffer and 0.1% SDS. Running conditions were 100 V during the first 20 minutes, followed by 160 V until the migration front reached the bottom of the gel. The transference was performed at 100 V onto 0.2 μm nitrocellulose membranes, in the presence of tris-glycine buffer and 20% methanol. The blotting duration was 140 minutes except for the detection of GUCY2C, which was transferred during 240 minutes in the presence of 0.1% SDS. Membranes were then submerged in Ponceau S solution to check blotting efficiency (0.1% Ponceau S, 5% acetic acid). After several washings with DEMI water, blots were incubated during 1 hour in the presence of 5% milk powder and TBS-T (154 mM NaCl, 49.5 mM Tris-Cl pH 7.4, 0.1% Tween-20). The incubation with the primary antibodies was performed O/N at 4° C. in TBS-T (consult Table 2 for dilution and species). Membranes were rinsed in TBS-T during 1 hour to remove the excess antibody. The incubation with the secondary antibodies took place during 60 minutes at room temperature (1:10,000 dilution in TBS-T, with the exception of the goat secondary which was diluted 1:20,000). Secondary antibodies were fused to the horseradish peroxidase and raised against the host species of the primary antibody. After additional washings during 1 hour, blots were exposed to an enhanced chemiluminescence solution and the signal was detected using an Odyssey imager (LI-COR). Band densitometry was performed with LI-COR Image Studio Lite. For graph quantifications, ‘Fold Change’ represents the ratio P-Ser40/Total Th. Statistical comparisons between pair of groups correspond to unpaired Student's t-tests, as calculated with GraphPad Prism. Asterisks denote the following p-values: *<0.05, **<0.01, ***<0.001, ****<0.0001.
# IBMX is a non-selective PDE inhibitor, therefore we investigated the effect of inhibiting a specific PDE selectively on Ser40 phosphorylation. To study the effect of PDE2A inhibition on Ser40 phosphorylation we treated the dopaminergic cell-line MN9D with Bay BAY-60-7550 and analyzed the effects. […]
# [2] = system: Ser40 phosphorylation of Th in HEK cells transfected with Th; experiment: Th Ser40 phosphorylation in HEK cells transfected with Th (western blot); format: cell-based; conditions: HEK-293 transfected with Th, low concentrations (1 μM)
# Method: FIG. 3. HEK cells are a suitable model to study GUCY2C-induced Ser40 phosphorylation. (A) RT-qPCR data from intact HEK extracts. Input material was 10 ng of total RNA. Cp corresponds to the cycle number in which the expression starts to be considered positive. (−) represents the water control, which is negative in every case. (B) HEK cultures were transfected with Th and treated with a cGMP analogue 48 hours post-plating. Changes in Ser40 phosphorylation were studied. The graph represents the statistical analysis (n=6; Mean±SEM). Unpaired Student's t-test (p-value: ****<0.0001). Hereon, ‘Fold Change’ corresponds to the ratio P-Ser40/Total Th.
# as §1
# HEK cells were maintained in 100-mm Petri dishes and grown in DMEM medium supplemented with L-glutamine, penicillin-streptomycin (Pen&Strep) and 10% heat-inactivated fetal bovine serum (HIFBS). Growing conditions were 37° C. and 5% CO2. For every-other-day passages, HEK cultures were split at a 1:3 dilution. From Friday to Monday, the split proportion was doubled for all cell lines. For passaging, cultures were rinsed with PBS and incubated with 1 mL of trypsin during 5 minutes. Cells were resuspended in growth medium and finally split to the proper dilution. The experiments were performed in 12-well plates. For immunocytochemistry analysis, sterile 18-mm coverslips were added prior to the plating. 500 !μL of cell resuspension was seeded in each well. If experiments were to be performed 48 hours after the plate preparation, 1:5 was the seeding ratio for HEK cells. When the experiments took place 96 hours post-plating, 1:7 was the working dilution for HEK cells. Unless otherwise stated, HEK cultures were processed 96 hours post-plating.
# HEK cells were transfected using the calcium-phosphate method. […]
smiles,measurement,setting,value
COc1ccc(Cc2nn3c([C@@H](CCCc4ccccc4)[C@@H](C)O)nc(C)c3c(=O)[nH]2)cc1OC [BAY 60-7550],increase in the phosphorylation of Ser40,[1]; 50 μM,more than 4 fold
same,performance versus IBMX on Ser40 phosphorylation,[1]; IBMX 100 μM as control,performed better than IBMX
same,phosphorylation of Th on Ser40 as compared to total Th (in words),[1]; dose-curve,clear fold change increase in Ser40 phosphorylation
same,IC50,"[1]; n=9, read-out: IC50 in the dopaminergic model (dose-curve of Th Ser40 phosphorylation)",1000 nM
same,effect on Ser40 phosphorylation in HEK cells,[2],hardly exhibit any effect
same,effect on Ser40 phosphorylation in HEK cells,[2]; listed as BAY 60-7750,almost no effect
